Experimental data from EP0326329B1, “Quinazoline derivatives useful as insecticides” (Dow AgroSciences LLC, priority 1988, dated 1989).
Like-named read-outs stand apart in the source and are kept apart here.

Key:
Type in all cases: in vivo
[1] = tested on: Botrytis cinerea (gray mold); assay: Greenhouse Test 1, foliar spray fungicide screen (GRAY MOLD), host grape berries; settings: disease control rating, 400 ppm (+++ at 100 ppm)
[2] = tested on: Pseudoperonospora cubensis (downy mildew); assay: Greenhouse Test 1, foliar spray fungicide screen (DOWN MDEW), host squash; settings: disease control rating, 400 ppm (+++ at 100 ppm)
[3] = tested on: Puccinia recondita tritici (leaf rust); assay: Greenhouse Test 1, foliar spray fungicide screen (LEAF RUST), host wheat; settings: disease control rating, 400 ppm (+++ at 100 ppm)
[4] = tested on: Erysiphe graminis tritici (powdery mildew); assay: Greenhouse Test 1, foliar spray fungicide screen (POWD MDEW), host wheat; settings: disease control rating, 400 ppm (+++ at 100 ppm)
[5] = tested on: southern armyworm (Spodopetra eridania Cramer); assay: Mite/insect screen, sprayed squash leaves (SAW); settings: percent mortality; for mortality at 200 ppm / mortality at 400 ppm: Spodoptera eridania, read-out: SAW RESULTS %
Method: (§1) The compounds of Examples 1-203 were tested for miticidal and insecticidal activity in the following mite/insect screen.
(§2) Each test compound was formulated by dissolving the compound in acetone/alcohol (50:50) mixture containing 23 g of "TOXIMUL R" (sulfonate/nonionic emulsifier blend) and 13 g of "TOXIMUL S" (sulfonate/nonionic emulsifier blend) per liter. These mixtures were then diluted with water to give the indicated concentrations.
(§3) Other plants in the same treatment pot were left uninfested. The leaves were then sprayed with 5 ml of test solution using a DeVilbiss atomizing sprayer at 10 psi. Both surfaces of the leaves were covered until runoff, and then allowed to dry for one hour. Two uninfested leaves were then excised and placed into a Petri dish containing larval southern armyworm (Spodopetra eridania Cramer).
(§4) After standard exposure periods, percent mortality and phytotoxicity were evaluated. […]

[6] = tested on: Pyricularia oryzae (rice blast); settings: disease control rating, foliar spray, host rice; 400 ppm (+++ at 100 ppm)
[7] = tested on: Twospotted spider mites (Tetranychus urticae Koch); assay: Mite/insect screen, sprayed squash cotyledons (SM); settings: percent mortality; for mortality at 200 ppm / mortality at 400 ppm: Tetranychus urticae, read-out: SM RESULTS %
Method: as §1, §2, §3, §4

[8] = tested on: melon aphids (Aphis gossypii Glover); assay: Mite/insect screen, sprayed squash cotyledons (MA); settings: percent mortality; for mortality at 200 ppm / mortality at 400 ppm: Aphis gossypii, read-out: MA RESULTS %
Method: as §1, §2, §3, §4

[9] = tested on: Southern corn rootworm (Diabrotica undecimpuctata howardi Barber); assay: Mite/insect screen, soil treatment (CRW); settings: percent mortality, soil treatment; for mortality at 12 ppm / mortality at 24 ppm: Diabrotica, read-out: CRW RESULTS %
Method: as §1, §2
Activity on Southern corn rootworm (Diabrotica undecimpuctata howardi Barber) was evaluated by adding two ml of tap water, a presoaked corn seed, and 15 g of dry sandy soil to a one ounce plastic container. The soil was treated with 1 mL of test solution containing a pre-determined concentration of test compound. After six to 12 hours of drying, five 2-3 instar corn rootworm larvae were added to the individual cups, which were then capped and held at 23°C.
as §4

| SMILES | GRAY MOLD [1] | DOWN MDEW [2] | LEAF RUST [3] | POWD MDEW [4] | mortality at 200 ppm ([5]; spray rate 200 ppm) [%] | mortality at 400 ppm ([5]; spray rate 400 ppm) [%] | RICE BLAST [6] | mortality at 200 ppm ([7]; spray rate 200 ppm) [%] | mortality at 400 ppm ([7]; spray rate 400 ppm) [%] | mortality at 200 ppm ([8]; spray rate 200 ppm) [%] | mortality at 400 ppm ([8]; spray rate 400 ppm) [%] | mortality at 12 ppm ([9]; CRW rate 12.00 ppm) [%] | mortality at 24 ppm ([9]; CRW rate 24.00 ppm) [%] | other results |
| --- | --- | --- | --- | --- | --- | --- | --- | --- | --- | --- | --- | --- | --- | --- |
| CC(C)c1ccc(CCCOc2ncnc3ccccc23)cc1 [Example 143, 4-[3-[4-(1-methylethyl)phenyl]propoxy]quinazoline] | - (- = 0-19% control at 400 ppm) | ++ (++ = 90-100% control at 400 ppm) | - (- = 0-19% control at 400 ppm) | + (+ = 20-89% control at 400 ppm) | 80 | 0 | ++ (++ = 90-100% control at 400 ppm) | 0 | 0 | 0 | 0 | 0 | 0 |  |
| Fc1ccc(CCOc2ncnc3c(F)cccc23)c(F)c1 [Example 159, 8-fluoro-4-[2-(2,4-difluorophenyl)ethoxy]quinazoline] | - (- = 0-19% control at 400 ppm) | +++ (+++ = 90-100% control at 100 ppm) | +++ (+++ = 90-100% control at 100 ppm) | +++ (+++ = 90-100% control at 100 ppm) | 0 | 0 | +++ (+++ = 90-100% control at 100 ppm) | 90 | 80 | 80 | 100 | 0 | 0 |  |
| Clc1ccc2ncnc(NCCc3ccccc3Oc3ccccc3)c2c1 [Example 57, 6-chloro-N-[2-(2-phenoxyphenyl)ethyl]-4-quinazolinamine] | - (- = 0-19% control at 400 ppm) | - (- = 0-19% control at 400 ppm) | - (- = 0-19% control at 400 ppm) | - (- = 0-19% control at 400 ppm) | 80 | 0 | - (- = 0-19% control at 400 ppm) | 0 | 0 | 0 | 0 | 0 | 0 | SAW RESULTS % ([5]; spray rate 200 ppm): 100%; SM RESULTS % ([7]; spray rate 200 ppm): 0%; MA RESULTS % ([8]; spray rate 200 ppm): 0%; CRW RESULTS % ([9]; CRW rate 12.00 ppm): 0% |
| COc1ccccc1CCOc1ncnc2ccccc12 [Example 14, 4-[2-(2-methoxyphenyl)ethoxy]quinazoline] | - (- = 0-19% control at 400 ppm) | ++ (++ = 90-100% control at 400 ppm) | + (+ = 20-89% control at 400 ppm) | + (+ = 20-89% control at 400 ppm) |  | 0 | + (+ = 20-89% control at 400 ppm) |  | 0 |  | 0 |  | 0 |  |
| CC(COc1ncnc2c(F)cccc12)c1ccc(-c2ccccc2)cc1 (stereo not drawn) [Example 199, 8-fluoro-4-[2-(1,1'-biphenyl)4-ylpropoxy]quinazoline] | - (- = 0-19% control at 400 ppm) | + (+ = 20-89% control at 400 ppm) | +++ (+++ = 90-100% control at 100 ppm) | +++ (+++ = 90-100% control at 100 ppm) |  |  | + (+ = 20-89% control at 400 ppm) |  |  |  |  |  |  | mortality at 200 ppm ([5]; Southern armyworm, sprayed squash leaves, RATE 200 PPM): 0%; mortality at 400 ppm ([5]; Southern armyworm, sprayed squash leaves, RATE 400 PPM): 60%; mortality at 200 ppm ([7]; twospotted spider mites, sprayed squash cotyledons, RATE 200 PPM): 100%; mortality at 400 ppm ([7]; twospotted spider mites, sprayed squash cotyledons, RATE 400 PPM): 0%; mortality at 200 ppm ([8]; melon aphids, sprayed squash cotyledons, RATE 200 PPM): 100%; mortality at 400 ppm ([8]; melon aphids, sprayed squash cotyledons, RATE 400 PPM): 0%; mortality at 12 ppm ([9]; corn rootworm, CRW RATE 12.00 PPM): 0%; mortality at 24 ppm ([9]; corn rootworm, CRW RATE 24.00 PPM): 0% |
| c1ccc(Oc2ccc(CCOc3ncnc4ccccc34)cc2)cc1 [Example 69, 4-[2-(4-phenoxyphenyl)ethoxy]quinazoline] | - (- = 0-19% control at 400 ppm) | +++ (+++ = 90-100% control at 100 ppm) | +++ (+++ = 90-100% control at 100 ppm) | +++ (+++ = 90-100% control at 100 ppm) |  | 100 | +++ (+++ = 90-100% control at 100 ppm) |  | 100 |  | 0 |  | 0 |  |
| Fc1cccc2c(OCCc3ccc(-c4ccccc4)cc3)ncnc12 [Example 116, 8-fluoro-4-[2-(1,1'-biphenyl)-4-ylethoxy]quinazoline] | - (- = 0-19% control at 400 ppm) | +++ (+++ = 90-100% control at 100 ppm) | + (+ = 20-89% control at 400 ppm) | ++ (++ = 90-100% control at 400 ppm) |  |  | +++ (+++ = 90-100% control at 100 ppm) |  | 0 |  | 0 | 0 | 0 | SAW RESULTS % ([5]; spray rate 200 ppm): 0%; SAW RESULTS % ([5]; spray rate 400 ppm): 0% |
| Cc1ccccc1CCOc1ncnc2ccccc12 [Example 103, 4-[2-(2-methylphenyl)ethoxy]quinazoline] | - (- = 0-19% control at 400 ppm) | + (+ = 20-89% control at 400 ppm) | +++ (+++ = 90-100% control at 100 ppm) | + (+ = 20-89% control at 400 ppm) |  | 0 | + (+ = 20-89% control at 400 ppm) |  | 0 |  | 0 |  | 0 |  |
| CCCCOc1ccc(CCOc2ncnc3ccccc23)cc1 [Example 180, 4-[2-(4-butoxyphenyl)ethoxy]quinazoline] | - (- = 0-19% control at 400 ppm) | +++ (+++ = 90-100% control at 100 ppm) | +++ (+++ = 90-100% control at 100 ppm) | +++ (+++ = 90-100% control at 100 ppm) | 0 | 100 | +++ (+++ = 90-100% control at 100 ppm) | 80 | 100 | 50 | 100 | 0 | 0 |  |
| Cc1cccc(CCOc2ncnc3ccccc23)c1 [Example 97, 4-[2-(3-methylphenyl)ethoxy]quinazoline] | - (- = 0-19% control at 400 ppm) | ++ (++ = 90-100% control at 400 ppm) | +++ (+++ = 90-100% control at 100 ppm) | +++ (+++ = 90-100% control at 100 ppm) |  | 0 | ++ (++ = 90-100% control at 400 ppm) |  | 0 |  | 0 |  | 0 |  |
| Fc1cccc2c(NCCc3ccc(Oc4ccccc4)cc3)ncnc12 [Example 101, 8-fluoro-N-[2-(4-phenoxyphenyl)ethyl]-4-quinazolinamine] | ++ (++ = 90-100% control at 400 ppm) | +++ (+++ = 90-100% control at 100 ppm) | - (- = 0-19% control at 400 ppm) | + (+ = 20-89% control at 400 ppm) | 100 | 0 | +++ (+++ = 90-100% control at 100 ppm) | 100 | 100 | 80 | 100 | 100 | 0 |  |
| CC(Cc1ccccc1)Oc1ncnc2ccccc12 (stereo not drawn) [Example 18, 4-(1-methyl-2-phenylethoxy)quinazoline] | - (- = 0-19% control at 400 ppm) | ++ (++ = 90-100% control at 400 ppm) | + (+ = 20-89% control at 400 ppm) | ++ (++ = 90-100% control at 400 ppm) |  | 0 | + (+ = 20-89% control at 400 ppm) |  | 0 |  | 0 |  | 100 |  |
